Consider eleven molecules from ChEMBL document CHEMBL1201862, “PubChem BioAssay data set” (2004).

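Compound exposure: 48 hours, 5 concentrations, 96-well plates. GI50 marks 50% less growth.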 The source made the active and inactive calls. Rule as the data show it: active = GI50 up to about 1.1 µM and inactive = higher. Bounds are passed on as bounds.

Some test systems named below: CAKI-1; OVCAR-8; HT-29; HL-60; IGROV-1; M14; DU-145; HOP-92; UACC-257; NCI/ADR-RES; MOLT-4; SW-620; COLO 205; NCI-H23; HCT-15; CCRF-CEM; OVCAR-5; SK-MEL-5; ACHN.
What all share (assay): growth of human tumour cells (NCI), 48 h

As to `COc1ccc(-c2cc(O)c3nc4ccccc4n3c2)cc1`, the GI50 in the experiment with CAKI-1 is > 100 µM (inactive); with OVCAR-8, > 100 µM (inactive); with HT-29 it was > 100 µM (inactive); in the experiment on HL-60, > 100 µM (inactive); in the experiment on IGROV-1, 71 µM (inactive); in the experiment with M14, > 100 µM (inactive). The GI50 in the experiment with DU-145, with HOP-92, with UACC-257, in the experiment with NCI/ADR-RES, in the experiment on MOLT-4 and in the experiment on SW-620 was > 100 µM (inactive) throughout. Also, the GI50 is > 100 µM (inactive) with COLO 205, > 100 µM (inactive) in the experiment with NCI-H23, over 100 µM in the experiment with HCT-15 and > 100 µM (inactive) in the experiment with CCRF-CEM.
`CNC(=O)c1nnn(C2CCCCC2)c1S`: the GI50 with CAKI-1, with OVCAR-8, with HT-29, in the experiment on HL-60, in the experiment with IGROV-1 and with M14 was > 100 µM (inactive) throughout. Further, the GI50 in the experiment on DU-145, in the experiment with HOP-92, in the experiment with UACC-257, in the experiment on OVCAR-5, with NCI/ADR-RES and with MOLT-4 was > 100 µM (inactive) in each case. Besides, the GI50 is > 100 µM (inactive) with SW-620; > 100 µM (inactive) with COLO 205; > 100 µM (inactive) with NCI-H23; > 100 µM (inactive) with SK-MEL-5; over 100 µM with HCT-15; > 100 µM (inactive) in the experiment with CCRF-CEM. Moreover, the GI50 with ACHN was > 100 µM (inactive).
For `CCCCc1nc(C)oc1C(C)C`, the GI50 with CAKI-1, in the experiment on OVCAR-8, with HT-29, with HL-60, in the experiment on IGROV-1 and with M14 was > 100 µM (inactive) in each case. For the same molecule, the GI50 in the experiment with DU-145, with HOP-92, in the experiment on UACC-257, in the experiment with OVCAR-5, with NCI/ADR-RES and in the experiment on MOLT-4 was > 100 µM (inactive) in each case. Further, the GI50 with SW-620 was > 100 µM (inactive); in the experiment with COLO 205 it was > 100 µM (inactive); with NCI-H23 it was > 100 µM (inactive); with SK-MEL-5, > 100 µM (inactive); with HCT-15, over 100 µM; in the experiment on CCRF-CEM it was > 100 µM (inactive). Besides, the GI50 in the experiment on ACHN was > 100 µM (inactive).
Consider `CC1=NN(C(=O)c2ccccc2O)C(=O)/C1=C/c1cccc([N+](=O)[O-])c1`, for which the GI50 was 2.2 µM (inactive) in the experiment on CAKI-1; 0.889 µM (active) in the experiment on OVCAR-8; 38.7 µM (inactive) in the experiment with HT-29; 1.22 µM (inactive) in the experiment on HL-60; 0.384 µM (active) in the experiment on IGROV-1; 2.37 µM (inactive) in the experiment with M14. Also, the GI50 in the experiment with DU-145 is 1.55 µM (inactive); with HOP-92, 1.27 µM (inactive); with UACC-257 it was 5.73 µM (inactive); in the experiment with OVCAR-5, 10.4 µM (inactive); in the experiment with NCI/ADR-RES, 6.81 µM (inactive); with SW-620, 3.44 µM (inactive). Further, the GI50 in the experiment on COLO 205 is 29 µM (inactive); with NCI-H23, 0.753 µM (active); in the experiment on SK-MEL-5 it was 2.57 µM (inactive); with HCT-15, 4.05 µM; in the experiment with CCRF-CEM, 2.77 µM (inactive); in the experiment on ACHN it was 0.528 µM (active).
With `COc1ccc(C2=NN(C(=O)c3ccc(Cl)cc3)C(O)(c3cc(F)c(Cl)cc3Cl)C2)cc1OC` (centres undefined), the GI50 in the experiment with CAKI-1 was 18.6 µM (inactive); with OVCAR-8 it was 58.1 µM (inactive); in the experiment with HT-29, 4.29 µM (inactive); in the experiment on HL-60, 0.495 µM (active); in the experiment with IGROV-1 it was 35.1 µM (inactive); with M14, 12.5 µM (inactive). Further, the GI50 in the experiment on DU-145 is 8.51 µM (inactive); in the experiment with HOP-92, 13.2 µM (inactive); in the experiment on UACC-257, 31.3 µM (inactive); with OVCAR-5 it was > 100 µM (inactive); with NCI/ADR-RES it was 9.77 µM (inactive); with MOLT-4, 4.13 µM (inactive). Besides, the GI50 was 6.97 µM (inactive) with SW-620; 47.1 µM (inactive) in the experiment on NCI-H23; 33.1 µM (inactive) in the experiment with SK-MEL-5; 8.28 µM in the experiment with HCT-15; 1.99 µM (inactive) in the experiment on CCRF-CEM; 14.9 µM (inactive) with ACHN.
Regarding `O=C1C=CC(=NNc2ccccc2)C=CC1=O`, the GI50 in the experiment with CAKI-1 is 13.9 µM (inactive); in the experiment on OVCAR-8 it was 20.4 µM (inactive); with HT-29 it was 13.6 µM (inactive); in the experiment on HL-60, 14 µM (inactive); with IGROV-1, 7.94 µM (inactive); with M14 it was 12.9 µM (inactive). In addition, the GI50 in the experiment on DU-145 was 18 µM (inactive); in the experiment on HOP-92, 17.5 µM (inactive); in the experiment with UACC-257 it was 18.8 µM (inactive); with OVCAR-5 it was 20.8 µM (inactive); with NCI/ADR-RES, 11.6 µM (inactive); in the experiment on MOLT-4, 3.1 µM (inactive). Further, the GI50 with SW-620 was 6.58 µM (inactive); with COLO 205, 13.5 µM (inactive); in the experiment with NCI-H23 it was 14 µM (inactive); in the experiment on SK-MEL-5, 11.5 µM (inactive); with HCT-15 it was 5.83 µM; in the experiment with ACHN, 8.05 µM (inactive).
On to `CCN(CC)c1cc2c3c(c1)CCCN3CCC2`, for which the GI50 with CAKI-1, in the experiment with OVCAR-8, in the experiment with HT-29, in the experiment with HL-60, with IGROV-1 and in the experiment with M14 was > 10 µM (inactive) in each case. Further, the GI50 in the experiment on DU-145, in the experiment on HOP-92, in the experiment with UACC-257, with NCI/ADR-RES, in the experiment on MOLT-4 and with SW-620 was > 10 µM (inactive) in each case. The GI50 in the experiment on COLO 205 was > 10 µM (inactive); with NCI-H23 it was > 10 µM (inactive); in the experiment with SK-MEL-5, > 10 µM (inactive); in the experiment on HCT-15, over 10 µM; in the experiment on CCRF-CEM, > 10 µM (inactive); in the experiment with ACHN it was > 10 µM (inactive).
Turning to `FC(F)(F)c1ccc2c(c1)nc(-c1ccccc1)n2CC1CCCN2CCCCC12` (centres undefined), the GI50 in the experiment on CAKI-1 was 17.3 µM (inactive); with OVCAR-8, 18.6 µM (inactive); in the experiment with HT-29, 16.1 µM (inactive); in the experiment with HL-60, 14.3 µM (inactive); with IGROV-1, 18.3 µM (inactive); in the experiment on M14 it was 17.1 µM (inactive). Moreover, the GI50 is 27 µM (inactive) with DU-145; 18.8 µM (inactive) in the experiment with HOP-92; 15.9 µM (inactive) in the experiment on UACC-257; 16.3 µM (inactive) with NCI/ADR-RES; 25.9 µM (inactive) with MOLT-4; 28.1 µM (inactive) in the experiment with SW-620. The GI50 in the experiment with COLO 205 was 13 µM (inactive); in the experiment with SK-MEL-5, 14.9 µM (inactive); in the experiment with HCT-15, 21.9 µM; in the experiment with ACHN it was 19.9 µM (inactive).
For `O=S(=O)(O)CCCC1S(=O)(=O)OCCOS1(=O)=O`, the GI50 in the experiment on CAKI-1, in the experiment on OVCAR-8, in the experiment on HT-29, with HL-60, in the experiment on IGROV-1 and in the experiment with M14 was > 100 µM (inactive) in each case. In addition, the GI50 in the experiment with DU-145, in the experiment on HOP-92, in the experiment on UACC-257, in the experiment on OVCAR-5, in the experiment on NCI/ADR-RES and in the experiment on SW-620 was > 100 µM (inactive) throughout. The GI50 with COLO 205 was > 100 µM (inactive); in the experiment on NCI-H23 it was > 100 µM (inactive); with SK-MEL-5 it was > 100 µM (inactive); in the experiment with HCT-15, over 100 µM; in the experiment on ACHN, > 100 µM (inactive).
`O=C(OCC1OC(c2nn[nH]n2)C(OC(=O)c2ccccc2)C1OC(=O)c1ccccc1)c1ccccc1` (centres undefined): the GI50 with CAKI-1 is > 100 µM (inactive); in the experiment with OVCAR-8, > 100 µM (inactive); with HT-29 it was 61.9 µM (inactive); with HL-60 it was > 100 µM (inactive); in the experiment with DU-145, > 100 µM (inactive); in the experiment on HOP-92 it was > 100 µM (inactive). Moreover, the GI50 in the experiment on UACC-257, in the experiment with OVCAR-5, in the experiment on NCI/ADR-RES, in the experiment on MOLT-4, in the experiment with SW-620 and in the experiment with COLO 205 was > 100 µM (inactive) throughout. For the same molecule, the GI50 in the experiment with NCI-H23 is > 100 µM (inactive); in the experiment on SK-MEL-5 it was > 100 µM (inactive); in the experiment on HCT-15, over 100 µM; in the experiment on CCRF-CEM it was 96.6 µM (inactive); with ACHN it was > 100 µM (inactive).
For the molecule `O=[N+]([O-])c1cc(-[n+]2cc([O-])on2)ccc1F`, the GI50 is 2.11 µM (inactive) with CAKI-1; 16.4 µM (inactive) in the experiment on OVCAR-8; 14.9 µM (inactive) in the experiment with HT-29; 22.6 µM (inactive) in the experiment with HL-60; 14.7 µM (inactive) in the experiment on IGROV-1; 16.1 µM (inactive) in the experiment with M14. In addition, the GI50 with DU-145 is 12.8 µM (inactive); in the experiment on HOP-92, 16.9 µM (inactive); in the experiment with UACC-257, 16.8 µM (inactive); with OVCAR-5, 16.5 µM (inactive); in the experiment on NCI/ADR-RES, 21.2 µM (inactive); in the experiment with SW-620, 18.4 µM (inactive). Further, the GI50 was 17.7 µM (inactive) with COLO 205; 18.2 µM (inactive) with NCI-H23; 15 µM (inactive) with SK-MEL-5; 20.3 µM in the experiment with HCT-15; 11.8 µM (inactive) in the experiment with CCRF-CEM; 17 µM (inactive) in the experiment with ACHN.
